Results reported in US11981680B2, “Substituted thienopyrroles as PAD4 inhibitors” (BRISTOL-MYERS SQUIBB COMPANY, priority 2018, dated 2024).

target: human PAD4 (hPAD4) (Homo sapiens (Human), UniProt Q9UM07); assay: RFMS Human PAD4 Functional Assay; format: biochemical; settings: rapid-fire mass spectrum (RFMS) assay; 5 nM hPAD4 enzyme, 250 μM BAEE, 30 min preincubation at 37° C.
Description: Compounds of the present invention were assayed as inhibitors of PAD4 using the assay protocol described below.
RFMS Human PAD4 Functional Assay:
Compounds were solubilized in 100% DMSO to achieve a10 mM compound concentration. Compound stock solutions were stored at RT. A series of dilutions were prepared in DMSO and mixed 8 times with 20 μL mixing volume. Final top concentration of compound in the assay is 50 μM. Final assay conditions were as follows: • Reaction volume: 26 μl • Assay buffer: 25 mM hepes, pH 7.5, 5 mM NaCl, 1 mM DTT, 0.2 mg/ml BSA, 0.01% CHAPS, 50 μM Calcium, and 5 μM TPEN • Final concentrations: 5 nM hPAD4 enzyme, 250 μM BAEE, and 0.5% DMSO • Total incubation time: 30 mins compound and enzyme preincubation at 37° C., 90 min enzyme/substrate reaction, 30 min reaction with phenyl glyoxal at 37° C. • Stop solution: 40 μl 5% TCA in ACN
0.13 μL of compound solution was added to 13 μL of 10 nM PAD4 in assay buffer. After 30 min 13 μl of 500 μM of BAEE was added in 25 mM hepes, pH 7.5, 5 mM NaCl, 1 mM DTT, 0.2 mg/ml BSA, 0.01% CHAPS, 50 μM Calcium, 5 μM TPEN was added and the reaction incubated for 90 min at 37° C. The enzymatic reaction was quenched by addition of 15 μl of 6.1N TCA, 100% Final Concentration is 20%, 35 μl of 8.5 mM phenyl glyoxal (final concentration 4 mM) is then added and the reaction is incubated for 30 min at 37° C.
After 30 minutes the plates are spun down to remove all precipitate. The enzyme reaction was quenched with an equal volume of methanol containing internal standard (modified citrulline). Samples were loaded onto the Rapid Fire RF300 system (Agilent) wherein they were first sipped for 1000 ms and then directly loaded to a C18 separations cartridge using a mixture of acetonitrile containing 0.01% formic acid for 3000 ms desalting. The flow rate of the mobile phase was 1.5 ml/min. Once the samples were eluted from the cartridge, a mobile phase of acetonitrile containing 0.01% formic acid was used to move the samples into the mass spectrometer for 4000 ms at a flow rate of 1.25 ml/min/Sciex API5500 triple quadrupole mass spectrometer (Applied Biosystems) equipped with ESI was used to analyze the peptidyl citrulline and internal standard ions.
MRM transition of product and internal standard were monitored at m/z 424.5 to 350.4 and m/z 293 to 247 respectively. The dwell time for each transition was set at 200 ms, and the ESI voltage was used at 5500 with a source temperature of 400° C. Extracted ion peaks for each transition were integrated using the Rapid Fire Integrator software. Peak area of analyte was normalized with internal standard.).

Sequence of human PAD4 (hPAD4) (Q9UM07 whole entry): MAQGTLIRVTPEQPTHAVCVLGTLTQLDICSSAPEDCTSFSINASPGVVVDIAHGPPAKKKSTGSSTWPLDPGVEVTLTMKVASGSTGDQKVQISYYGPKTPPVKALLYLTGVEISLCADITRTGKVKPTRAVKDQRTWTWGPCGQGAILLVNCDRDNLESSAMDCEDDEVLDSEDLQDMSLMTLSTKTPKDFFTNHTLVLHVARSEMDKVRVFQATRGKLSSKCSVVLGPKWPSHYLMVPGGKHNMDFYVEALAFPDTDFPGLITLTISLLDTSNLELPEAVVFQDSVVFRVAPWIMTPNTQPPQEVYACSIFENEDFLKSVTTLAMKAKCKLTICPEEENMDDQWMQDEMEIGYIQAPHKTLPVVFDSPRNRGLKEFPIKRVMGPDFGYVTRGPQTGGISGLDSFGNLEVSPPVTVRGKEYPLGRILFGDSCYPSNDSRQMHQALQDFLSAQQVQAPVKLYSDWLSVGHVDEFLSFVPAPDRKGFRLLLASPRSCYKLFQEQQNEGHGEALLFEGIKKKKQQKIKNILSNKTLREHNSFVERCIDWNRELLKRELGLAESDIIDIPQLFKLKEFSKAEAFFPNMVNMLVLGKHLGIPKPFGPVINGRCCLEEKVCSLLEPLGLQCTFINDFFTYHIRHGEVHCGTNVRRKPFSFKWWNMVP

IC50 [µM]	Compound
0.086	COc1cc(C(=O)N2C[C@H](N)C[C@@H](F)C2)cc2nc(-c3cc4sccc4n3CC3CC3)n(C)c12 [Example 30, ((3R,5R)-3-amino-5-fluoropiperidin-1-yl)(2-(4-(cyclopropylmethyl)-4H-thieno[3,2-b]pyrrol-5-yl)-7-methoxy-1-methyl-1H-benzo[d]imidazol-5-yl)methanone]
0.165	COc1cc(C(=O)N2C[C@H]3CC[C@@H]2[C@@H]3N)cc2nc(-c3cc4scc(CC5CNC5)c4n3CC3CC3)n(C)c12 [Example 18, ((1R,4R,7R)-7-amino-2-azabicyclo[2.2.1]heptan-2-yl)(2-(3-(azetidin-3-ylmethyl)-4-(cyclopropylmethyl)-4H-thieno[3,2-b]pyrrol-5-yl)-7-methoxy-1-methyl-1H-benzo[d]imidazol-5-yl)methanone]
0.059	COc1cc(C(=O)N2C[C@H]3CC[C@@H]2[C@@H]3N)cc2nc(-c3cc4scc(CCC#N)c4n3CC3CC3)n(C)c12 [Example 15, 3-(5-(5-((1R,4R,7R)-7-amino-2-azabicyclo[2.2.1]heptane-2-carbonyl)-7-methoxy-1-methyl-1H-benzo[d]imidazol-2-yl)-4-(cyclopropylmethyl)-4H-thieno[3,2-b]pyrrol-3-yl)propanenitrile]
0.062	COc1cc(C(=O)N2C[C@H]3CC[C@@H]2[C@@H]3N)cc2nc(-c3cc4scc(Nc5ccncc5)c4n3CC3CC3)n(C)c12 [Example 49, ((1R,4R,7R)-7-Amino-2-azabicyclo[2.2.1]heptan-2-yl)(2-(4-(cyclopropylmethyl)-3-(pyridin-4-ylamino)-4H-thieno[3,2-b]pyrrol-5-yl)-7-methoxy-1-methyl-1H-benzo[d]imidazol-5-yl)methanone]
0.147	COc1cc(C(=O)N2C[C@H]3CC[C@@H]2[C@@H]3N)cc2nc(-c3cc4scc(-c5ccncc5)c4n3CC3CC3)n(C)c12 [Example 47, ((1R,4R,7R)-7-amino-2-azabicyclo[2.2.1]heptan-2-yl)(2-(4-(cyclopropylmethyl)-3-(pyridin-4-yl)-4H-thieno[3,2-b]pyrrol-5-yl)-7-methoxy-1-methyl-1H-benzo[d]imidazol-5-yl)methanone]
0.04	COc1cc(C(=O)N2C[C@H]3CC[C@@H]2[C@@H]3N)cc2nc(-c3cc4scc(C5CCCNC5)c4n3CC3CC3)n(C)c12 (single isomer, unassigned) [Example 9]

Second part, the molecule before the results:

Compound	IC50 [µM]
COc1cc(C(=O)N2C[C@H]3CC[C@@H]2[C@@H]3N)cc2nc(-c3cc4scc(-c5cnn(CC(F)(F)F)c5)c4n3CC3CC3)n(C)c12 [Example 42, ((1R,4R,7R)-7-amino-2-azabicyclo[2.2.1]heptan-2-yl)(2-(4-(cyclopropylmethyl)-3-(1-(2,2,2-trifluoroethyl)-1H-pyrazol-4-yl)-4H-thieno[3,2-b]pyrrol-5-yl)-7-methoxy-1-methyl-1H-benzo[d]imidazol-5-yl)methanone]	0.059
COc1cc(C(=O)N2C[C@H]3CC[C@@H]2[C@@H]3N)cc2nc(-c3cc4scc(C5CC(O)C5)c4n3CC3CC3)n(C)c12 (mixture of isomers) [Example 7, cis/trans-((1R,4R,7R)-7-amino-2-azabicyclo[2.2.1]heptan-2-yl)(2-(4-(cyclopropylmethyl)-3-(3-hydroxycyclobutyl)-4H-thieno[3,2-b]pyrrol-5-yl)-7-methoxy-1-methyl-1H-benzo[d]imidazol-5-yl)methanone]	0.034
COc1cc(C(=O)N2C[C@H]3CC[C@@H]2[C@@H]3N)cc2nc(-c3cc4scc(CCN5CCOC5=O)c4n3CC3CC3)n(C)c12 [Example 13, 3-(2-(5-(5-((1R,4R,7R)-7-amino-2-azabicyclo[2.2.1]heptane-2-carbonyl)-7-methoxy-1-methyl-1H-benzo[d]imidazol-2-yl)-4-(cyclopropylmethyl)-4H-thieno[3,2-b]pyrrol-3-yl)ethyl)oxazolidin-2-one]	0.054
COc1cc(C(=O)N2C[C@H]3CC[C@@H]2[C@@H]3N)cc2nc(-c3cc4scc(C5CC(O)C5)c4n3CC3CC3)n(C)c12 (single isomer, unassigned) [Example 21]	0.038
COc1cc(C(=O)N2C[C@H]3CC[C@@H]2[C@@H]3N)cc2nc(-c3cc4scc(C5COC5)c4n3CC3CC3)n(C)c12 [Example 2, ((1R,4R,7R)-7-amino-2-azabicyclo[2.2.1]heptan-2-yl)(2-(4-(cyclopropylmethyl)-3-(oxetan-3-yl)-4H-thieno[3,2-b]pyrrol-5-yl)-7-methoxy-1-methyl-1H-benzo[d]imidazol-5-yl)methanone]	0.063
COc1cc(C(=O)N2C[C@H]3CC[C@@H]2[C@@H]3N)cc2nc(-c3cc4scc(-c5ccn(C)n5)c4n3CC3CC3)n(C)c12 [Example 37, ((1R,4R,7R)-7-amino-2-azabicyclo[2.2.1]heptan-2-yl)(2-(4-(cyclopropylmethyl)-3-(1-methyl-1H-pyrazol-3-yl)-4H-thieno[3,2-b]pyrrol-5-yl)-7-methoxy-1-methyl-1H-benzo[d]imidazol-5-yl)methanone]	0.054
COc1cc(C(=O)N2C[C@H]3CC[C@@H]2[C@@H]3N)cc2nc(-c3cc4scc(C5CC6(CNC6)C5)c4n3CC3CC3)n(C)c12 [Example 20, ((1R,4R,7R)-7-amino-2-azabicyclo[2.2.1]heptan-2-yl)(2-(4-(cyclopropylmethyl)-3-(2-azaspiro[3.3]heptan-6-yl)-4H-thieno[3,2-b]pyrrol-5-yl)-7-methoxy-1-methyl-1H-benzo[d]imidazol-5-yl)methanone]	0.036
COc1cc(C(=O)N2C[C@H]3CC[C@@H]2[C@@H]3N)cc2nc(-c3cc4scc(-c5ccc[nH]5)c4n3CC3CC3)n(C)c12 [Example 46, ((1R,4R,7R)-7-amino-2-azabicyclo[2.2.1]heptan-2-yl)(2-(4-(cyclopropylmethyl)-3-(1H-pyrrol-2-yl)-4H-thieno[3,2-b]pyrrol-5-yl)-7-methoxy-1-methyl-1H-benzo[d]imidazol-5-yl)methanone]	0.173
COc1cc(C(=O)N2C[C@H]3CC[C@@H]2[C@@H]3N)cc2nc(-c3cc4scc(CCC(N)=O)c4n3CC3CC3)n(C)c12 [Example 11, 3-(5-(5-((1R,4R,7R)-7-amino-2-azabicyclo[2.2.1]heptane-2-carbonyl)-7-methoxy-1-methyl-1H-benzo[d]imidazol-2-yl)-4-(cyclopropylmethyl)-4H-thieno[3,2-b]pyrrol-3-yl)propanamide]	0.047
COc1cc(C(=O)N2C[C@H]3CC[C@@H]2[C@@H]3N)cc2nc(-c3cc4scc(CC(CN)CCl)c4n3CC3CC3)n(C)c12 (stereo partly drawn) [Example 19, (2-(3-(3-amino-2-(chloromethyl)propyl)-4-(cyclopropylmethyl)-4H-thieno[3,2-b]pyrrol-5-yl)-7-methoxy-1-methyl-1H-benzo[d]imidazol-5-yl)((1R,4R,7R)-7-amino-2-azabicyclo[2.2.1]heptan-2-yl)methanone]	0.07
COc1cc(C(=O)N2C[C@H]3CC[C@@H]2[C@@H]3N)cc2nc(-c3cc4scc(C5CCCNC5)c4n3CC3CC3)n(C)c12 (single isomer, unassigned) [Example 17]	0.079
COc1cc(C(=O)N2C[C@H]3CC[C@@H]2[C@@H]3N)cc2nc(-c3cc4scc(-c5ccc(O)c(F)c5)c4n3CC3CC3)n(C)c12 [Example 36, ((1R,4R,7R)-7-amino-2-azabicyclo[2.2.1]heptan-2-yl)(2-(4-(cyclopropylmethyl)-3-(3-fluoro-4-hydroxyphenyl)-4H-thieno[3,2-b]pyrrol-5-yl)-7-methoxy-1-methyl-1H-benzo[d]imidazol-5-yl)methanone]	0.059
COc1cc(C(=O)N2C[C@H]3CC[C@@H]2[C@@H]3N)cc2nc(-c3cc4scc(-c5cnn(CC(F)F)c5)c4n3CC3CC3)n(C)c12 [Example 43, ((1R,4R,7R)-7-amino-2-azabicyclo[2.2.1]heptan-2-yl)(2-(4-(cyclopropylmethyl)-3-(1-(2,2-difluoroethyl)-1H-pyrazol-4-yl)-4H-thieno[3,2-b]pyrrol-5-yl)-7-methoxy-1-methyl-1H-benzo[d]imidazol-5-yl)methanone]	0.051
